Laboratory results: paper PMC9233675, “Ru(II) photocages enable precise control over enzyme activity with red light” (Nature Communications, 2022)
Values joined by “and” are separate entries in the source; they are usually repeats but may differ in a detail not shown here. Equal entries are not always repeated. Where two headings read alike, the source gives them in different places.

Experiments:
[1] = Irradiation-induced 1O2 production (Singlet Oxygen Sensor Green assay); assay type: physicochemical; details: sheet S27; triplicate columns; DMSO control about 0.9
Description: Some Ru(II) complexes can generate singlet oxygen when photoexcited, a feature that has been applied to the selective photoinactivation of proteins. In this approach, the Ru(II) system is conjugated to a peptide that is a specific ligand for the protein target; binding of the peptide to the protein ensures close proximity of the Ru(II) center and thus, upon photoexcitation, the generation of a high local concentration of singlet oxygen. […] As very little of this reactive oxygen species was generated, inactivation of the CYP enzymes by this process appears unlikely.
Supplementary Figure 27. Determination of irradiation-induced 1O2 production with 660 nm light (1 hr = 58.7 J/cm2)
using the Singlet Oxygen Sensor Green assay. […]

[2] = human, microsomes
[3] = rat, microsomes
[4] = mouse, microsomes
CYP19A1 [5] = tested on: CYP19A1; set-up: method as in PMID 9152599; details: cited from earlier work
[6] = set-up: method as in Scifinder; details: ref Scifinder; cited from earlier work
[7] = Stability of compounds in human liver microsomes; details: for Remaining, % (T=60min): human, liver microsomes
[8] = Stability of complexes at 37 °C in the dark (HPLC, UV/Vis); assay type: physicochemical
Procedure: The stability of each complex was assessed over 24 h under aqueous conditions at 37 °C (Supplementary Figs. 12–15). […] Given the potency of the caged inhibitor, thermal stability is of critical importance, making complex 6 the preferred photocaged candidate.
Opti-MEM with 2% fetal bovine serum (right) at 37 °C in the dark over the course of 0 (blue line) to 24 h (black dashed line). Compounds were tested in triplicate (n = 3), the data for one replicate are presented. Complexes 4 and 5 slowly degraded in the experiment condition (see HPLC traces, Figures S13–14). The decrease in absorbance for complex 6 is explained by the slow aggregation of the compound in the 96-well plate.
(1 picture or pasted object on this page, not shown here)
Supplementary Figure 13. a HPLC chromatogram analysis of stability of 4 (50 µM in di-H2O) before (black dashed line, purity > 92 % ) and after incubation at 37 °C for 24 hours (red line). At 24 hours, 43 % of 4 was […]
Supplementary Figure 14. HPLC chromatogram analysis of stability of 5 (50 µM in di-H2O) before (black dashed line, purity > 97 %) and after incubation at 37 °C for 24 hours (red line). At 24 hours, 50 % of 5 was observed […]
Supplementary Figure 15. HPLC chromatogram analysis of stability of 6 (40 µM in di-H O : MeCN mixture (4:1), […]
MeCN was added to reduce the aggregation) before (black dashed line, purity > 99.5 %) and after incubation at 37 °C for 24 hours. At 24 hours, less than 2 % degradation was observed (calculated by area, detection wavelength = […]
Supplementary Figure 16. HPLC chromatogram analysis of stability of 6 (40 µM) in 5 % DMSO / di-H2O with a 100 μM GSH, b 100 μM imidazole and c acidic condition (pH = 1) after incubation at 37 °C for 72 hours. Less than […]
detection wavelength = 280 nm). […]
imidazole and c acidic condition (pH = 1) after incubation at 37 °C for 72 hours. d At 72 hours less than 7 % degradation was observed by HPLC at pH = 1 (calculated by area, detection wavelength = 280 nm). Compounds were tested in triplicate (n = 3), the data for one replicate are presented.

CYP19A1 [9] = biological target: T1, CYP19A1 (Homo sapiens, UniProt P11511); assay: In cell activity assay for CYP19A1 (dibenzylfluorescein conversion, HEK293 T-Rex cells); assay type: cell-based; details: concentrations up to 30 μM, in the dark and following irradiation to form 7
T1 sequence (P11511 1-503): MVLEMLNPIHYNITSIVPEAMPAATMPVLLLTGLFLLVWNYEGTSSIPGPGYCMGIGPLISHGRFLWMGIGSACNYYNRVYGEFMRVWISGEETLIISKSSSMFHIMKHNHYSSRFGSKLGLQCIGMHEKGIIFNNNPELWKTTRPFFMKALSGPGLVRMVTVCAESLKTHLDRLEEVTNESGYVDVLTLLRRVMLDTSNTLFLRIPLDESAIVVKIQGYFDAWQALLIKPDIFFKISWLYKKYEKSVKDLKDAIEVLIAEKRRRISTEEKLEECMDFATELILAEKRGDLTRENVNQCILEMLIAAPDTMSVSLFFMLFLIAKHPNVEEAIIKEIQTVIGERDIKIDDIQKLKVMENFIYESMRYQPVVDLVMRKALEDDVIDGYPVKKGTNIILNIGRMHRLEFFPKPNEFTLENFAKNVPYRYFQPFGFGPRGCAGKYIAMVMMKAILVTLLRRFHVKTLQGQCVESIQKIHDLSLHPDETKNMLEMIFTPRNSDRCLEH
Procedure: Thus, the activity against CYP19A1 was evaluated using a recently developed in-cell fluorometric assay.
REE or DBF was added as described above.

HEK293 T-Rex cell line = assay: Cellular viability (resazurin to resorufin, 72 h); assay type: cell-based, human; details: Supplementary Fig. 24d
Procedure: The cells were >70% viable at 72 h with 10 μM compound, as quantified by metabolically active cells determined by the conversion of resazurin to resorufin (Supplementary Figs. 18–20).
The parental HEK T-Rex cell line was maintained as above, in the absence of Zeocin. Compounds were serially diluted in media, and the cells were dosed from 0–30 μM compound, and then incubated at 37 °C (n = 3). […] The cells were incubated with the compound in the dark for 30 min prior to light exposure, using the same parameters as in the enzyme activity assay, and then treated as above.

fungal CYP51 = details: read-out: Kd fungal CYP51; cited from earlier work
CYP3A4 = tested on: CYP3A4; set-up: method as in PMID 23018626; details: cited from earlier work
human isoform of CYP51 = biological target: human isoform of CYP51; set-up: method as in PMID 23826084; details: cited from earlier work
[10] = Stability of compounds in mouse liver microsomes
[11] = Stability of compounds in rat liver microsomes

Q: Which “irradiation-induced 1O2 production (Singlet Oxygen Sensor Green signal, relative)” value [1] does the source give for `[Ru+2].c1ccc(-c2ccccn2)nc1.c1ccc(-c2ccccn2)nc1.c1ccc(-c2ccccn2)nc1` [Ru(bpy)3, reference compound] here?
A: 4.994 and 4.917 and 5.133

Q: Which “CLint(mic)” value [2] does the source give for `COc1ccc(/C=C/c2cc[n+]([Os-4]34([Cl])([n+]5ccccc5-c5cccc[n+]53)[n+]3ccccc3-c3cccc[n+]34)cn2)c(OC)c1.[Cl-]` [[Os(bpy)2(2)Cl]Cl] here?
A: < 9.6 µL/min/mg

Q: What about the T1/2 [2] of the same molecule?
A: > 2.42 h

Q: And the “Remaining, % (NCF=60min)” value ([2]; 1 h)?
A: 107%

Q: What about the “Remaining, % (T=60min)” value ([2]; 1 h) of the same molecule?
A: 78.4%

Q: What about the “CLint(mic)” value [3] of the same molecule?
A: 16.9 µL/min/mg

Q: What about the T1/2 [3] of the same molecule?
A: 1.36 h

Q: What about the “Remaining, % (NCF=60min)” value ([3]; 1 h) of the same molecule?
A: 91.8%

Q: What about the “Remaining, % (T=60min)” value ([3]; 1 h) of the same molecule?
A: 56.5%

Q: And the “CLint(mic)” value [4]?
A: < 9.6 µL/min/mg

Q: And the T1/2 [4]?
A: > 2.42 h

Q: And the “Remaining, % (NCF=60min)” value ([4]; 1 h)?
A: 75.9%

Q: What about the “Remaining, % (T=60min)” value ([4]; 1 h) of the same molecule?
A: 71.8%

Q: For `CC(C)(C#N)c1cc(Cn2cncn2)cc(C(C)(C)C#N)c1` [Anastrozole, anastrozole], which “selectivity for CYP19A1 over liver CYPs” value (CYP19A1 [5]) is on record?
A: at least 500 fold

Q: For `CCCCCCOC(C)c1c(C)c2cc3nc(c4c5[nH]c(cc6nc(cc1[nH]2)C(C)=C6CC)c(C)c5C(=O)C4)[C@@H](CCC(=O)O)[C@@H]3C` (some centres unmarked) [HPPH, reference compound], which “irradiation-induced 1O2 production (Singlet Oxygen Sensor Green signal, relative)” value [1] is on record?
A: 4.8266 and 4.787 and 4.883

Q: With `Cc1ccncc1` [methyl pyridine] as the molecule, how does the pKa [6] read?
A: 5.9

Q: For `O=C(O)Cc1ccccc1Nc1c(Cl)cccc1Cl` [Diclofenac, reference compound], which “Remaining, % (T=60min)” value [7] is on record?
A: 0.0%

Q: For `O=C([O-])c1cc2[n+](c3ccccc13)[Ru-4]13([n+]4ccccc4)([n+]4ccccc4-c4cccc([n+]41)-c1cccc[n+]13)[n+]1c-2cc(C(=O)[O-])c2ccccc21` [Compound 8, [Ru(tpy)(bca)(pyridine)]], which “irradiation-induced 1O2 production (Singlet Oxygen Sensor Green signal, relative)” value [1] is on record?
A: 1.034 and 0.94 and 1.135

Q: And the “degradation at pH = 1” value ([8]; 5 % DMSO / di-H2O, acidic condition (pH = 1), 37 °C, 72 hours)?
A: less than 7%

Q: And the “degradation over 72 h” value ([8]; Supplementary Fig. 17)?
A: < 7%

Q: What about the “impact on any CYP (CYP19A1)” value (CYP19A1 [9]) of the same molecule?
A: no impact

Q: And the “effect on cell health” value (HEK293 T-Rex cell line)?
A: no effect

Q: With `CC(=O)N1CCN(c2ccc(OCC3COC(Cn4ccnc4)(c4ccc(Cl)cc4Cl)O3)cc2)CC1` (centres unmarked) [Ketoconazole, ketoconazole] as the molecule, how does the Kd (fungal CYP51) read?
A: 27 nM

Q: And the Kd (human isoform of CYP51)?
A: 42 nM

Q: Which “Remaining, % (NCF=60min)” value ([10]; mouse liver microsomes, no co-factor (no NADPH)) does the source give for `C[C@]12CC[C@H]3[C@@H](CCC4=CC(=O)CC[C@@]43C)[C@@H]1CC[C@@H]2O` [Testosterone, reference compound] here?
A: 91.3%

Q: And the “Remaining, % (T=60min)” value ([10]; mouse, liver microsomes)?
A: 2.3%

Q: And the “Remaining, % (NCF=60min)” value ([11]; rat liver microsomes, no co-factor (no NADPH))?
A: 86.5%

Q: And the “Remaining, % (T=60min)” value ([11]; rat, liver microsomes)?
A: 0.8%

Q: And the “Remaining, % (NCF=60min)” value ([7]; human liver microsomes, no co-factor (no NADPH))?
A: 82.5%

Q: And the “Remaining, % (T=60min)” value [7]?
A: 3.6%

Q: With `Cc1ccncn1` [methyl pyrimidine] as the molecule, how does the pKa [6] read?
A: 2.0
